Experimental data taken from patent publication US12435080B2, “sGC stimulators” (Tisento Therapeutics Inc., priority 2016, dated 2025).
Where “and” joins values, the source holds several entries; their conditions need not be identical. Identical values can stand only once.

Columns and labels:
sGC enzyme = target: T1, sGC enzyme (Homo sapiens, UniProt Q02108+Q02153); test: cGMP GloSensor cell-based assay, 384-well format; details: HEK293 cells expressing GloSensor 40F cGMP; 10 μM DETA-NONOate; normalized to 30 μM Compound Y; compounds in Table IA; read-out: Glo-sensor AbsEC50
T1 construct: incorporated into these cells detect cGMP formed by the compounds stimulating the sGC enzyme; host or cells: HEK293 cells stably expressing GloSensor 40F cGMP biosensor
T1 sequence (Q02153 1-619): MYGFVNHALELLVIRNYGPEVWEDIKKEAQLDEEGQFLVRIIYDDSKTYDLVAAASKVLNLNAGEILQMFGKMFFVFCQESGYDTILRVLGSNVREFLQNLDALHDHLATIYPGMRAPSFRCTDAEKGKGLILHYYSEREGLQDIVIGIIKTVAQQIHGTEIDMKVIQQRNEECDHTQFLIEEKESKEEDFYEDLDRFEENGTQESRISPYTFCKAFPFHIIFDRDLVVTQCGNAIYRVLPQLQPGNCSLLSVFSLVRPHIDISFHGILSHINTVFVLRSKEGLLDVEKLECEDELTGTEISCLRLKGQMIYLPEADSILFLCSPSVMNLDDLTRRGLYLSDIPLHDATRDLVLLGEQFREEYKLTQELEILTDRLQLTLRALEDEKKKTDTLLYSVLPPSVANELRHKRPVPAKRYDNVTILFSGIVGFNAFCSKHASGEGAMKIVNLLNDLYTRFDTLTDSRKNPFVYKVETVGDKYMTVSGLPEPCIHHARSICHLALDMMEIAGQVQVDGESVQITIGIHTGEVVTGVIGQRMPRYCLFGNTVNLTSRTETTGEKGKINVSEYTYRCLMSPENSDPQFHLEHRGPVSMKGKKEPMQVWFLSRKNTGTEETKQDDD
T1 sequence (Q02108 1-690): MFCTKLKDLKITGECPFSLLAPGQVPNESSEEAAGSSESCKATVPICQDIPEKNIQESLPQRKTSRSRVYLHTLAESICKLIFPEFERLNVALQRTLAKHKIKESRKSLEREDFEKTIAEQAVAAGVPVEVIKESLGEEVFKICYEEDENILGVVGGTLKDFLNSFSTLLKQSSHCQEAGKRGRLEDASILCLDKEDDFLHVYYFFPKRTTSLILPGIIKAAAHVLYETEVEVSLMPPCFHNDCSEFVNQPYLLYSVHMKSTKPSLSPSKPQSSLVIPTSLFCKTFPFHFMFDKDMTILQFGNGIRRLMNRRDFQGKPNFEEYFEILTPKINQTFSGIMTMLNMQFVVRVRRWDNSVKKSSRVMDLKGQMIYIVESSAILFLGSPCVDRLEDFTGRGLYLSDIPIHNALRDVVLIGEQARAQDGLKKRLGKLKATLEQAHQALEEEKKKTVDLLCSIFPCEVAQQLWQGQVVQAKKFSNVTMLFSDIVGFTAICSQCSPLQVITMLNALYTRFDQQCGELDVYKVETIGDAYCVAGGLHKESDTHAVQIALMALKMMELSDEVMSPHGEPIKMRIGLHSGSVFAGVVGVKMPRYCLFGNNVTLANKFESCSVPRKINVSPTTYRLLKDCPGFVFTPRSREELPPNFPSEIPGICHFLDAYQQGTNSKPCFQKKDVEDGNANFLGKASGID
Outline: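 HEK293 cells expressing GloSensor 40F cGMP luciferase biosensor, preloaded with 2 mM GloSensor substrate for 90 min at 25 °C. Endpoint luminescence read after 55 min compound incubation at room temperature.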

[1] = Rat cerebrospinal fluid (CSF) pharmacokinetic properties; type: in vivo; details: compounds in Table IA; for concentration at 1 h: CSF, male Sprague-Dawley rats, PO 10 mg/kg in PEG400, 1 h post-dosing, read-out: CSF Conc. (nM @ 1 h); for Kp uu at 1 h: male, Sprague-Dawley, CSF and plasma (unbound), unbound CSF/unbound plasma ratio, rats, PO 10 mg/kg
Experimental: PK in rats was determined following oral dosing. For the oral (PO) experiments, a group of 6 male Sprague-Dawley rats with an indwelling catheter placed in the cisterna magna were used. The PO group was dosed with 3 or 10 mg/kg of a compound formulated as a solution in PEG400. PO doses were administered by oral gavage and delivered to the stomach using a syringe and gavage tube. Following oral dosage administration, the gavage tube was flushed with approximately 0.5 mL of water to ensure complete delivery of the full dose.
Plasma and CSF samples were collected as follows: samples of CSF and blood were collected at 1 hour and 2 hours post-dosing. CSF samples (0.05 mL) were collected through the intracisternal catheter. Blood samples (0.25 mL) were collected through retro-orbital sampling. These samples were kept on ice until processed for plasma. Blood samples were centrifuged at 3200 rpm for 5 minutes at approximately 5° C. within 1 hour of collection. Plasma was directly transferred to a 96-well plate tube (0.125 mL). Plug caps were placed on the tubes and the tubes frozen at approximately −70° C. and stored until analysis.
Plasma was collected and analyzed for the presence of compound.
The compound in question and the internal standard were extracted from plasma and CSF by precipitation. Samples were analyzed using liquid chromatography (LC) with tandem mass spectrometric detection (MS/MS) using electrospray ionization. The standard curve range was from 1 to 1000 ng/mL. Results of the compounds described herein in this assay are illustrated in Tables 4A (for compounds in Table IA) and 4B (for compounds in Table IB) below.
Kp,uu is defined as the concentration ratio of unbound drug in CSF to unbound drug in plasma. Unbound drug in plasma (or free plasma concentration) is calculated by multiplying the total plasma concentration by the unbound fraction as determined by plasma protein binding. The CSF concentration is then divided by the free plasma concentration to determine the Kp,uu. (See e.g., Di et al., J. Med. Chem., 56, 2-12 (2013))

Row | SMILES | EC50 (sGC enzyme) | concentration at 1 h [1] | Kp uu at 1 h [1]
1 | Fc1cccc(Cn2nc(-c3nc(Cl)n[nH]3)c3cccnc32)c1F [Compound I-86, 3-(3-Chloro-1H-1,2,4-triazol-5-yl)-1-(2,3-difluorobenzyl)-1H-pyrazolo[3,4-b]pyridine] | < 100 nM | 31.5 nM | 2.41
2 | N#Cc1n[nH]c(-c2nn(Cc3ccccc3F)c3ncccc23)n1 [Compound I-41] | < 100 nM | 26.6 nM | 0.36
3 | Fc1ccccc1Cc1nn(-c2nc(C(F)F)n[nH]2)c2cccnc12 [Compound I-101, 1-(3-(Difluoromethyl)-1H-1,2,4-triazol-5-yl)-3-(2-fluorobenzyl)-1H-pyrazolo[4,3-b]pyridine] | < 100 nM | 104 nM | 2.81
4 | Fc1cccc(Cn2nc(-c3nc(C(F)(F)F)n[nH]3)c3cccnc32)c1F [Compound I-48, 1-(2,3-Difluorobenzyl)-3-(3-(trifluoromethyl)-1H-1,2,4-triazol-5-yl)-1H-pyrazolo[3,4-b]pyridine] | 100 to 1000 nM and < 100 nM | 41.6 nM | 2.52
5 | Fc1cccc(Cc2nn(-c3nc(C(F)(F)F)n[nH]3)c3cccnc23)c1F [Compound I-105, 3-(2,3-Difluorobenzyl)-1-(3-(trifluoromethyl)-1H-1,2,4-triazol-5-yl)-1H-pyrazolo[4,3-b]pyridine] | < 100 nM | 17.4 nM | 2.2
6 | OCc1n[nH]c(-c2nn(Cc3ccccc3F)c3ncccc23)n1 [Compound I-64, (5-(1-(2-fluorobenzyl)-1H-pyrazolo[3,4-b]pyridin-3-yl)-1H-1,2,4-triazol-3-yl)methanol] | < 100 nM | 13.1 nM | 0.54
7 | Cc1ncc(Cn2nc(-c3nc(C(F)(F)F)n[nH]3)c3ccccc32)cn1 [Compound I-62, 1-((2-methylpyrimidin-5-yl)methyl)-3-(3-(trifluoromethyl)-1H-1,2,4-triazol-5-yl)-1H-indazole] | < 100 nM | 83 nM | 0.62
8 | Fc1ccccc1Cn1nc(-c2nc(C3CC3(F)F)n[nH]2)c2cccnc21 (stereo not drawn) [Compound I-96, 3-(3-(2,2-Difluorocyclopropyl)-1H-1,2,4-triazol-5-yl)-1-(2-fluorobenzyl)-1H-pyrazolo[3,4-b]pyridine] | < 100 nM | 21.5 nM | 1.54
9 | Fc1ccccc1Cc1nn(-c2nc(C(F)(F)F)n[nH]2)c2cccnc12 [Compound I-31, 3-(2-Fluorobenzyl)-1-(3-(trifluoromethyl)-1H-1,2,4-triazol-5-yl)-1H-pyrazolo[4,3-b]pyridine] | 100 to 1000 nM | 66.6 nM | 3.84
10 | FC(F)(F)c1n[nH]c(-c2nn(Cc3cncnc3)c3ncccc23)n1 [Compound I-4, 1-(Pyrimidin-5-ylmethyl)-3-(3-(trifluoromethyl)-1H-1,2,4-triazol-5-yl)-1H-pyrazolo[3,4-b]pyridine] | < 100 nM | 79.5 nM | 1.98
11 | FC(F)(F)c1n[nH]c(-c2nn(CCC(F)(F)C(F)(F)F)c3ncccc23)n1 [Compound I-2, 1-(3,3,4,4,4-pentafluorobutyl)-3-(3-(trifluoromethyl)-1H-1,2,4-triazol-5-yl)-1H-pyrazolo[3,4-b]pyridine] | 100 to 1000 nM | 16.6 nM | 0.24
12 | FC(F)(F)c1n[nH]c(-c2nn(Cc3ccccc3)c3ncccc23)n1 [Compound I-49, 1-Benzyl-3-(3-(trifluoromethyl)-1H-1,2,4-triazol-5-yl)-1H-pyrazolo[3,4-b]pyridine] | < 100 nM | 172 nM | 1.57
